Experimental data: patent US7754754B2, “Pharmaceutical formulations containing substituted 2 heteroarylaminoacetic acid compounds” (Gruenenthal GmbH, priority 2003, dated 2010)

How the values were obtained:
[1] = target: T1, glycineB binding site of the NMDA receptor channel (Rattus norvegicus, UniProt P35439); assay: Receptor binding study, displacement of (3H)-MDL 105.519 from rat brain membrane homogenates; conditions: 10 μM of the compound under test, rat cortex and hippocampus membrane homogenate; for inhibition at 10 µM: read-out: % inhibition (percentage fraction of the bound radioactive ligand displaced from its specific binding)
T1 construct: the cortex and hippocampus are dissected out of freshly harvested rat brains and homogenised; from tissue; host or cells: rat (Wistar, male) brain cortex and hippocampus membrane homogenate
Procedure: (a) Receptor Binding Study (glycineB Binding Site of the NMDA Receptor Channel)
The affinity of the compounds of the above general formula I used according to the invention for the glycine binding site of the NMDA receptor channel is determined using brain membrane homogenates (homogenate of cortex and hippocampus area from the brain of male rats, Wistar strain), as for example described in B. M. Baron, B. W. Siegel, B. L. Harrison, R. S. Gross, C. Hawes and P. Towers, Journal of Pharmacology and Experimental Therapeutics, (1996), vol. 279, page 62. The corresponding literature description is hereby introduced as a reference and is deemed to be part of the disclosure.
To this end, the cortex and hippocampus are dissected out of freshly harvested rat brains and homogenised with ice cooling in 5 mmol/l of TRIS-acetate buffer, […] of sucrose, pH 7.4 (10 ml/g fresh weight) using a Potter homogeniser (Braun/Melsungen, 10 piston strokes at 500 rpm) and then centrifuged for 10 minutes at 1,000 g and 4° C. The first supernatant is collected and the sediment again homogenised with ice cooling with 5 mmol/l of tris-acetate buffer, 0.32 mol/l of sucrose, pH 7.4 (5 ml/g of original fresh weight) with the Potter homogeniser (10 piston strokes at 500 rpm) and centrifuged for 10 minutes at 1,000 g and 4° C. The resultant supernatant is combined with the supernatant from the first centrifugation and centrifuged at 17,000 g for 20 minutes at 4° C. The supernatant after this centrifugation is discarded and the membrane sediment resuspended with 5 mmol/l of TRIS-acetate buffer, pH 8.0 (20 ml/g of original fresh weight) and homogenised with 10 piston strokes at 500 rpm.
The membrane homogenate is then incubated for 1 hour at 4° C. and centrifuged for 30 minutes at 50,000 g and 4° C. The supernatant is discarded and the centrifuge tubes containing the membrane sediment are sealed with Parafilm and frozen for 24 hours at −20° C. On the following day, the membrane sediment is thawed and resuspended with ice-cold 5 mmol/I TRIS-acetate buffer, 0.1% saponin (wt./vol.), pH 7.0 (10 ml/g of original fresh weight) and homogenised with 10 piston strokes at 500 rpm and then centrifuged for 20 minutes at 50,000 g and 4° C. The resultant supernatant is discarded and the sediment resuspended in a small volume with 5 mmol/l of TRIS-acetate buffer, pH 7.0 (approx. 2 ml/g of original fresh weight) and again homogenised with 10 piston strokes at 500 rpm. After determination of the protein content, the membrane homogenate is adjusted with 5 mmol/l TRIS-acetate buffer, pH 7.0, to a protein concentration of 10 mg of protein/ml and frozen in aliquots until used for testing.
The receptor binding test is performed by thawing aliquots, diluting them 1:10 with 5 mmol/l TRIS-acetate buffer, pH 7.0, homogenising them with ice-cooling with 10 piston strokes at 500 rpm with the Potter homogeniser (10 piston strokes at 500 rpm) and centrifuging them for 60 minutes at 55,000 g at 4° C. The supernatant is decanted and the membrane sediment adjusted with ice-cold 50 mmol/l TRIS-acetate buffer, pH 7.0, to a protein concentration of 1 mg/ml and again homogenised with 10 piston strokes at 500 rpm and kept in suspension in an ice bath with stirring on a magnetic stirrer. This membrane homogenate is used in the receptor binding test in a quantity of 100 μl per 1 ml batch (0.1 mg of protein/ml in the final batch). In the binding test, the buffer used is 50 mmol/l TRIS-acetate buffer, pH 7.0, and the radioactive ligand […] of (3H)-MDL 105.519 (B. M. Baron et al. 1996). The level of nonspecific binding is determined in the presence of 1 mmol/l of glycine.
In further batches, the compounds used according to the invention are added in concentration series and the displacement of the radioactive ligand from its specific binding at the glycine-binding site of the NMDA receptor channel is determined. […]

[2] = tested on: male albino mice (NMRI); assay: Formaldehyde test (mouse), second (late) phase; format: in vivo; conditions: formaldehyde-induced nociception
Procedure: (b) Formaldehyde Test (Mouse)
The investigations for determining the antinociceptive action of the substituted 2-heteroarylaminoacetic acid compounds of the above general formula I used according to the invention are carried out by the formaldehyde test on male albino mice (NMRI, 25-35 g, Iffa, Credo, Belgium).
In the formaldehyde test, a distinction is drawn between the first (early) phase (0-15 min after formaldehyde injection) and the second (late) phase (15-60 min after formaldehyde injection) (D. Dubuisson et al., Pain, vol. 4, pp. 161-174 (1977)). The early phase, being a direct response to the formaldehyde injection, is considered to be a model of acute pain, while the late phase is considered to be a model of persistent (chronic) pain (T. J. Coderre et al., Pain, vol. 52, pp. 259-285 (1993)). The corresponding literature descriptions are hereby introduced as a reference and are deemed to be part of the disclosure.
The substituted 2-heteroarylaminoacetic acid compounds of the above general formula I used according to the invention are investigated in the second phase of the formaldehyde test in order to obtain information regarding the action of the substances in chronic/inflammatory pain.
A nociceptive reaction is induced in the freely mobile test animals by a single, subcutaneous formaldehyde injection (20 μl, 1% aqueous solution) into the dorsal side of the rear hind paw, the reaction being expressed by distinct licking and biting of the affected paw.
For the investigation period in the second (late) phase of the formaldehyde test, nociceptive behaviour is continuously recorded by observing the animals. […] After injection of the substances which are antinociceptively active in the formaldehyde test, the described behaviours of the animals are reduced or even eliminated. In the same manner as in the substance tests, in which the animals receive an injection of test substance before the formaldehyde, the control animals are injected with vehicle, i.e. solvent (for example 0.9% NaCl solution) before administration of the formaldehyde. The behaviour the animals after administration of the substance (n=10 per substance dose) is compared with a control group (n=10). On the basis of the quantification of the pain behaviour, the action of the substance in the formaldehyde test is determined as a percentage change of the control. ED50 calculations are carried out by regression analysis. The time of administration before the formaldehyde injection was selected as a function of the mode of administration of the compounds used according to the invention (intraperitoneal: 15 min; intravenous: 5 min).

| inhibition at 10 µM [1] [%] | Compound | % inhibition (percentage fraction of the bound radioactive ligand displaced from its specific binding) [1] [%] | Inhibition (%) at dose ([2]; at 46.4 mg/kg) | Inhibition (%) at dose ([2]; at 10 mg/kg) |
| --- | --- | --- | --- | --- |
|  | O=C([O-])C(Nc1cc(Cl)cc(Cl)c1)c1cc2ccccc2s1.[Na+] (centres unmarked) [Example 7, (Benzo[b]thiophen-2-yl)-(3,5-dichlorophenylamino)acetic acid, sodium salt] | 85 | 11% (at 46.4 mg/kg) |  |
| 85 | O=C(O)C(Nc1cc(Cl)cc(Cl)c1)c1cc2ccccc2s1 (centres unmarked) [Example 2, (Benzo[b]thiophen-2-yl)-(3,5-dichlorophenylamino)acetic acid] |  | 55% (at 46.4 mg/kg) |  |
|  | O=C([O-])C(Nc1cc(Cl)cc(Cl)c1)c1csc2ccccc12.[Na+] (centres unmarked) [Example 8, (Benzo[b]thiophen-3-yl)-(3,5-dichlorophenylamino)acetic acid, sodium salt] | 24 |  |  |
| 15 | O=C(O)C(Nc1cc(Cl)cc(Cl)c1)c1csc2ccccc12 (centres unmarked) [Example 3, (Benzo[b]thiophen-3-yl)-(3,5-dichlorophenylamino)acetic acid] |  |  |  |
|  | (Benzo[b]thiophen-2-yl)-(3,5-bis(trifluoromethyl)phenyl)acetic acid, sodium salt [Example 9] | 13 |  |  |
|  | (Benzo[b]furan-2-yl)-(3,5-bis(trifluoromethyl)phenyl)acetic acid, sodium salt [Example 10] | 29 | 60% (at 46.4 mg/kg) |  |
| 97 | O=C([O-])C(Nc1cc(Cl)cc(Cl)c1)c1cc2ccccc2o1.[Na+] (centres unmarked) [Example 6, (Benzofuran-2-yl)-(3,5-dichlorophenylamino)acetic acid, sodium salt] |  |  | 42% (at 10 mg/kg) |
